Measurements taken from US7192931B2, “Treatment of demyelinating diseases” (Neuren Pharmaceuticals Ltd., priority 2000, dated 2007).

Key:
Assay type in all cases: in vivo, mouse
oligodendrocytes = experiment: Oligodendrocyte loss by CNPase immunostaining of dorsal columns; details: 31 for rat IgG and 26 for PBS treated control mice
From the text: (§1) Frozen sections from lumbar spinal cord (10 μm) were acetone-fixed and immunostained for oligodendrocyte content with an antibody against CNPase (Sigma; diluted 1:100); for axonal damage with an antibody against non-phosphorylated neurofilament-H (SM 1-32; Stemberger Monoclonals Incorporated, Lutherville, Md., USA; diluted 1:1000), and for GluR2 and NR1 content using mouse mAbs obtained from Zymed Laboratories Inc., Carlton, San Francisco, Calif. Antibody staining was visualized with an avidin:biotinylated enzyme complex (Vector Laboratories, Burlingame, Calif., USA). Sections were viewed under a light microscope, and cells stained with the anti-CNPase and SM 1-32 antibodies were counted.
To evaluate the effects of the different treatment regimes on the loss of oligodendrocytes, a key cellular target in demyelinating diseases of the CNS, oligodendrocytes were enumerated by immunohistochemical staining of spinal cord sections and the number of oligodendrocytes within the dorsal columns of […] transverse sections were counted (FIG. 5B), and reductions in oligodendrocyte numbers were calculated and expressed as % loss of oligodendrocytes per dorsal section (FIG. 5C). […]

[1] = system: apoptotic cells in spinal cord of EAE mice; experiment: In situ detection of apoptotic cells in the CNS by TUNEL assay; details: spinal cord sections, compared to mice mock treated with PBS or rat IgG
Experimental: Cells undergoing apoptosis were identified using the in situ TUNEL assay. Five-μm thick serial sections of brain and spinal cord were prepared to detect apoptosis by TUNEL (i.e., terminal deoxynucleotidyl transferase-mediated deoxyuridine triphosphate-digoxigenin nick end labeling) staining using the In Situ Apoptosis Detection Kit from Boehringer Mannheim (Germany). Briefly, frozen sections were fixed in 4% paraformaldehyde, permeabilized in 0.1% Triton X-100, incubated with 20 μL TUNEL reagent for 60 minutes at 37° C., and then examined by fluorescence microscopy. Adjacent sections were counterstained with hematoxylin and mounted onto poly-L-lysine coated slides to allow the total number of nucleated cells to be counted. The percentage of apoptotic cells was assessed in ten randomly selected fields viewed at 40× magnification. The apoptotic index (AI) was calculated as follows: AI=number of apoptotic (TUNEL-positive) cells×100/total number of nucleated cells.

[2] = system: NMDA receptor subunit NR1; experiment: NMDA receptor subunit NR1 expression in spinal cord; details: spinal cord of EAE mice, immunohistochemistry and Western blot
From the text: as §1
PBS-perfused spinal cords were homogenized in lysis buffer (50 mM Tris pH 7.4, 100 μM EDTA, 0.25 M sucrose, 1% sodium dodecyl sulfate [SDS], 1% Nonidet P-40 [NP40], 1 μg/mL leupeptin, 1 μg/mL pepstatin A, and 100 μM phenylmethylsulfonylfluoride) at 4° C. using a motor-driven homogenizer (Virtus, Gardiner, N.Y.). […] Protein concentrations of the supernatants were determined as described (Peterson, 1983), and 100 μg of protein resolved on 10% polyacrylamide SDS-gels under reducing conditions and then electrophoretically transferred to Hybond C Extra nitrocellulose membranes (Amersham Life Science, England). […]

[3] = system: C57Bl/6 mice with MOG35-55 peptide-induced EAE; experiment: Clinical scoring of MOG35-55-induced EAE; details: for effectiveness of prolonged treatment on disease severity / effect on advanced EAE (clinical symptoms): advanced disease; for effectiveness of prolonged treatment on disease severity: prolonged treatment from day 60 (FIG. 1C); for effect on advanced EAE (clinical symptoms): mAb three injections from day 51, neuroprotectors 7 days from day 60 (FIG. 1B); for effect on development of EAE (clinical symptoms): early disease, treatment from day 35 (FIG. 1A)
Experimental: C57Bl/6 mice (8–10 week old) were injected subcutaneously in one flank with 300 μg of MOG35-55 peptide ([…]: SEQ ID NO:1) synthesized by Mimotapes Pty Ltd, Clayton, Australia and emulsified in CFA containing 500 μg of Mycobacterium tuberculosis H37Ra (DIFCO Laboratories, Detrit, USA). They also received 500 ng of pertussis toxin (List Biological Laboratories, CA, USA) in 200 μl PBS intravenously via the tail vein, followed 48 hours later by a second dose. A second injection of MOG peptide was given in the absence of pertussis toxin one week later in the opposite flank, as described previously (Kanwar et al., 2000b).
Two treatment protocols were employed, involving the treatment of early disease, versus advanced disease. For early disease, reagents were administered at day 35 (following MOG injection). Antibody was administered thrice on alternate days, whereas neuroprotectors were given daily for 6 days, where 50% of reagent was given ip and 50% iv. In the treatment of advanced disease, therapy as above was initiated at day 60, with either three or eight anti-MAdCAM-1 mAb injections, and neuroprotectors given daily for either 7 or 18 days.
The mice were monitored daily and scored according to the following scale: 0, no clinical signs of EAE; 1, limp tail; 2, partial hind limb paralysis; 3, complete hind limb paralysis; 4, complete hind limb and partial fore limb paralysis; 5, paralysis extending to diaphragm; 6, hind and fore limb paralysis; 7, death due to EAE. Paralysis extending to the diaphragm was denoted as difficulty in remaining upright. […] The daily mean clinical score for each group is the mean disease score of at least five mice. The body weight of animals was measured regularly throughout the experiments. The expanded disability status scale for EAE treated mice was scored using an earlier published scoring system (Villoslada et al. 2000).
The rat hybridoma MECA-367 (rat IgG2a),5 which secretes a mAb against mouse MAdCAM-1 was either provided by Dr Eugene Butcher, Stanford University, Stanford, Calif. (FIGS. 1A and B), or obtained directly from the American Type Culture Collection, Rockville, Md. (FIG. 1C, and remainder of studies). Rat IgG obtained from Sigma Co., USA, served as a control. Antibodies were administered into the tail vein (70% of mAb) and intraperitoneally (30% of mAb) at 10 mg/Kg separately or in combination on alternate days at the time points indicated (FIGS. 1–4). The rat IgG control antibody was also administered at 10 mg/Kg. Backbones from sacrificed mice were frozen in isopentane at −70° C. Transverse 10 μm sections made through the spinal cord of control and diseased mice, in each case made at the same levels of the cord, were mounted on poly L-lysine-coated slides, and stained with haematoxylin and eosin.

Row | Molecule | % loss of oligodendrocytes per dorsal section (oligodendrocytes) | reductions in the numbers of apoptotic cells [1] | NMDA receptor (NR1 subunit) expression [2] | effectiveness of prolonged treatment on disease severity [3] | effect on advanced EAE (clinical symptoms) [3] | effect on development of EAE (clinical symptoms) [3]
1 | NS(=O)(=O)c1cccc2c1c([N+](=O)[O-])cc1nc(O)c(O)nc12 [NBQX, 2,3-dihydroxy-6-nitro-7-sulfamoylbenzo(f)quinoxaline] | 13% | ~30% | caused down-regulation of the NMDA receptor | NBQX+GPE+anti-MAdCAM-1>NBQX+GPE>NBQX>GPE | only caused temporary remission | suppressed EAE, but to a greater extent than achieved with GPE
2 | Gly-Pro-Glu [GPE] | 14% | ~30% | not effective | NBQX+GPE+anti-MAdCAM-1>NBQX+GPE>NBQX>GPE | only caused temporary remission | suppressed EAE, up to 27 days after suspension of treatment
